A short description of data set [1]: Experiment 3: serum calcium, phosphate, alkaline phosphatase and body weight after 6 weeks. The format is in vivo, Male Wistar rats. As to conditions: for Serum Alkaline phosphatase: 6 weeks. Here is the method: (§1) Male, Wistar rats were obtained at 120-130 g, and placed on a 0.01% calcium, 0.7% phosphate diet that was vitamin D deficient (Teklad Test Diets, Madison, WI) this was for one week to help deplete vitamin D stores. For the next three weeks the rats were fed the vitamin D-deficient diet, but with normal, 0.5%, calcium. Starting with these 3 weeks, the rats were divided into four vitamin D3 -treatment groups, initially, nine rats per group: group a) supplemented once weekly with 0.6 μg vitamin D3 (average dose, 0.08 μg/day); group b) supplemented once every second day with vitamin D3 to provide 2 nmol/day, i.e., each dose was 4 nmol of vitamin D3; group c) supplemented once every second day with vitamin D3 to provide 8 μg/day. The preceding groups all received the vitamin D3 through an infant-feeding tube inserted through the mouth into the stomach. One group, d), received its vitamin D3 in the ethanol applied onto a shaved 2 cm×2 cm patch of skin on the back, this was done every second day to provide vitamin D3 at 8 μg/day. The volume of each dose of vitamin D3 given was adjusted so that the stated doses are per 250 g body weight. Over a second 3-week period while maintaining the described vitamin D3 dosing regimens, diet calcium content was changed weekly and blood sampling was started (that is, changes in calcium and sampling was from weeks 4 to 6, inclusive, of receiving the appropriate vitamin D3 supplement). Diet calcium was first dropped to 0.01% then raised to 1.5% and finally dropped again to 0.01%. For each week of dietary calcium manipulation, blood was obtained at day zero (the day of but just prior to the change in calcium), and days 1, 3, and 7 after the change. During the first week, 0.5 mL of blood was taken on the first two of these days and anticoagulated with heparin, the cells were isolated and resuspended in normal rat plasma and reinjected into the femoral vein. […] For the subsequent samplings, only 0.2-0.3 mL of blood was taken by bleeding from the tail into precalibrated microcentrifuge tubes. In this way, the bleeds prior to sacrifice removed a net total of less than 2 mL of blood, that is, less than or equal to 10% of the blood volume. Samples of daytime urine was collected into microfuge tubes that were fastened to the cones of metabolic collection funnels designed to hang under the wire cages. The cages and cones were rinsed with 0.1 mol/L hydrochloric acid prior to each collection. To eliminate contamination of the urine with diet, stool or water, the rats were placed into these separate cages only during the urine-collection period, until about 1 mL urine was present in the microfuge tube, this was typically within 5 min to one hour. […]

The nature of data set [2]: Experiment 3: vitamin D-binding capacity of serum (specific uptake of [3H]-25(OH)D3). The format is in vivo, rat. The settings on record: 6 weeks. On the procedure: as §1, with “tubes.” for “tubes. In this way, the bleeds prior to sacrifice removed a net total of less than 2 mL of blood, that is, less than or equal to 10% of the blood volume. Samples of daytime urine was collected into microfuge tubes that were fastened to the cones of metabolic collection funnels designed to hang under the wire cages. The cages and cones were rinsed with 0.1 mol/L hydrochloric acid prior to each collection. To eliminate contamination of the urine with diet, stool or water, the rats were placed into these separate cages only during the urine-collection period, until about 1 mL urine was present in the microfuge tube, this was typically within 5 min to one hour.”
Biochemical measurements. 1,25(OH)2 D3 in serum was measured by calf-thymus receptor-binding assay after initial purification of 1,25(OH)2 D3 with C18-OH cartridges (5). For the serum volumes that were minimal, serum was measured out in 50 μL increments, and the final result was adjusted for the volume of sample analyzed. […] The material eluting as 1,25(OH)2 D3 was evaporated and redissolved in acetonitrile: water for further purification with C18-OH cartridges and quantitation by thymus receptor assay, as described for serum. Renal 24-hydroxylase was measured by incubating mitochondria with [^3 H]-25(OH)D3 as substrate (Vieth and Fraser, J Biol Chem. 254:12455-12460;1979). […]

For data set [3] the following is noted: cited from earlier work.

Turning to `C=C1CC[C@H](O)C/C1=C/C=C1\CCC[C@]2(C)[C@@H]([C@H](C)CCCC(C)C)CC[C@@H]12` [vitamin D3], the “Serum Alkaline phosphatase” value amounted to 119 U/L in data set [1] (0.08 μg/day diet), 151 U/L in data set [1] (0.8 μg/day G1 (gastric)), 147 U/L in data set [1] (8 μg/day G1 (gastric)) and 152 U/L in data set [1] (8 μg/day dermal). In addition, in data set [1] (end of experiment 3), the “body weight difference between groups” value is “no weight differences between the groups”. Further, the “Binding Capacity for 25(OH)D3” value was 7.1 µmol/L in data set [2] (0.08 μg/day diet), 6.93 µmol/L in data set [2] (0.8 μg/day G1 (gastric)), 7.13 µmol/L in data set [2] (8 μg/day G1 (gastric)) and 7.96 µmol/L in data set [2] (8 μg/day dermal). For the same compound, the solubility in water entry in data set [3] is “not soluble in water”.

The record behind these values is patent US5532229A, “Topical administration of vitamin D to mammals” (priority 1994, dated 1996).
